Measurements taken from ChEMBL document CHEMBL4190397, “Design and Synthesis of Novel and Selective Glycine Transporter-1 (GlyT1) Inhibitors with Memory Enhancing Properties” (J Med Chem, 2018).

Experiments:
[1] = biological target: T1, Sodium- and chloride-dependent glycine transporter 1 (Homo sapiens, UniProt P48067); experiment: Inhibition of recombinant human GlyT1c expressed in HEK293 cells assessed as reduction in [14C]glycine uptake after 2 hrs by microbeta scintillation counting method; assay type: cell-based
T1 sequence (P48067 whole entry): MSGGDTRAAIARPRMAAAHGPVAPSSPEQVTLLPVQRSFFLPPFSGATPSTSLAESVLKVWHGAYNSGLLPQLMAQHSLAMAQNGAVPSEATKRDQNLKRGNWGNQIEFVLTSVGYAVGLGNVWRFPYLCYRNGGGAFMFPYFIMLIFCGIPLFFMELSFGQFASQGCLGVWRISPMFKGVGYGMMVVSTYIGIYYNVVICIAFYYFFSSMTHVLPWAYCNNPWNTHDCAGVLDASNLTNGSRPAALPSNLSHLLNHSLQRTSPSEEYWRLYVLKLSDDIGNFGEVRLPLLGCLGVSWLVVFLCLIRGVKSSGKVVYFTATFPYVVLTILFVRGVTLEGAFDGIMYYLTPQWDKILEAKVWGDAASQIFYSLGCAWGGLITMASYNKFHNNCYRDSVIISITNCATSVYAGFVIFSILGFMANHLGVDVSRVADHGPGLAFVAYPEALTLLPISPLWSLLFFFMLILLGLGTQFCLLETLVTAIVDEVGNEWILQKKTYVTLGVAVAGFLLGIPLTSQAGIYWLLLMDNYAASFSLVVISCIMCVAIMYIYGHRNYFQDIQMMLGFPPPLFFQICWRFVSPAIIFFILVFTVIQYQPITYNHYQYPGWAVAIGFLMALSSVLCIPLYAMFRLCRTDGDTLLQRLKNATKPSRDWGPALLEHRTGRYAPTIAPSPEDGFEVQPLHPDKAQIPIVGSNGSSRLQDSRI

[2] = Intrinsic clearance in human liver microsomes at 1 uM assessed per mg protein at 37 degC up to 60 mins in presence of NADPH by HPLC-MS analysis; assay type: ADME, microsome; settings: read-out: CLH
[3] = biological target: Voltage-gated inwardly rectifying potassium channel KCNH2 (Homo sapiens, UniProt Q12809); experiment: Inhibition of human ERG expressed in CHO cells at 10 nM to 10 uM at holding potential of -80 mV measured after 5 mins by QPatch automated patch clamp electrophysiology method
Voltage-gated inwardly rectifying potassium channel KCNH2, sequence (Q12809 whole entry): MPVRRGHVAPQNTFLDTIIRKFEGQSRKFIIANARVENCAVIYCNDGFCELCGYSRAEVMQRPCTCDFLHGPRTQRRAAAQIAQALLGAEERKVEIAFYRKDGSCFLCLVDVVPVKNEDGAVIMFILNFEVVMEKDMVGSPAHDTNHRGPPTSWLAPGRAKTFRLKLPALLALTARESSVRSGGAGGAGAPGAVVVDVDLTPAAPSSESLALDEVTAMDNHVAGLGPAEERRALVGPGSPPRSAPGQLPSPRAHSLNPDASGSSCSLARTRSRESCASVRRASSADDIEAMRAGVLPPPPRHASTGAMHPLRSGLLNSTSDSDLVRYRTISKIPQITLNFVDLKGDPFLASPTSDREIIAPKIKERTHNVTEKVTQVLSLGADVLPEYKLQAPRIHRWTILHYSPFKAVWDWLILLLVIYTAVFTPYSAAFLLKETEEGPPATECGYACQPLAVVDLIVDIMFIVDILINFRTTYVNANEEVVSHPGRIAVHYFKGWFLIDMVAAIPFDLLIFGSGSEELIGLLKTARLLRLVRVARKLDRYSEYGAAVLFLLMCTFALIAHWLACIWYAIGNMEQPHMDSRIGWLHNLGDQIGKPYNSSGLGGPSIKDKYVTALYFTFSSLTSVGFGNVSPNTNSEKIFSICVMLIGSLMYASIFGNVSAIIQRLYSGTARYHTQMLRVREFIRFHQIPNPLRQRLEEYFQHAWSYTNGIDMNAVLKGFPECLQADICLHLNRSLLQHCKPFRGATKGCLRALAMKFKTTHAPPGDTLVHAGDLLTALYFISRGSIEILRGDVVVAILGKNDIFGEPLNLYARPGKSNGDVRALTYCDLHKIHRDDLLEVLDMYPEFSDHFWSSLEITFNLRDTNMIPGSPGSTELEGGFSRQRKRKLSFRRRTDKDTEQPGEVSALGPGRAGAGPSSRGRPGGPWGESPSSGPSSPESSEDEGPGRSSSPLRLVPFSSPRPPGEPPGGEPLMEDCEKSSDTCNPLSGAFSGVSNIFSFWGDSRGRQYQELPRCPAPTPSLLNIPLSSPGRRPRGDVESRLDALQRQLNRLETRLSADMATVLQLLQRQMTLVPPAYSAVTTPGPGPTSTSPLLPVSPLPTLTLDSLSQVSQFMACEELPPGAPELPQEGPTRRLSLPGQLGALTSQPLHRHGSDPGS

[4] = Apparent permeability from apical to basolateral side in MDCK-MDR1 cells monolayer at 5 uM after 60 mins by LC-MS/MS analysis; settings: dog
[5] = Efflux ratio of apparent permeability from basolateral to apical over apical to basolateral side in MDCK-MDR1 cells at 5 uM after 60 mins by LC-MS/MS analysis; settings: dog
[6] = biological target: T2, Sodium- and chloride-dependent glycine transporter 2 (Homo sapiens, UniProt Q9Y345); experiment: Inhibition of recombinant human GlyT2 expressed in HEK293 cells assessed as reduction in [14C]glycine uptake after 2 hrs by microbeta scintillation counting method; assay type: cell-based
T2 sequence (Q9Y345 whole entry): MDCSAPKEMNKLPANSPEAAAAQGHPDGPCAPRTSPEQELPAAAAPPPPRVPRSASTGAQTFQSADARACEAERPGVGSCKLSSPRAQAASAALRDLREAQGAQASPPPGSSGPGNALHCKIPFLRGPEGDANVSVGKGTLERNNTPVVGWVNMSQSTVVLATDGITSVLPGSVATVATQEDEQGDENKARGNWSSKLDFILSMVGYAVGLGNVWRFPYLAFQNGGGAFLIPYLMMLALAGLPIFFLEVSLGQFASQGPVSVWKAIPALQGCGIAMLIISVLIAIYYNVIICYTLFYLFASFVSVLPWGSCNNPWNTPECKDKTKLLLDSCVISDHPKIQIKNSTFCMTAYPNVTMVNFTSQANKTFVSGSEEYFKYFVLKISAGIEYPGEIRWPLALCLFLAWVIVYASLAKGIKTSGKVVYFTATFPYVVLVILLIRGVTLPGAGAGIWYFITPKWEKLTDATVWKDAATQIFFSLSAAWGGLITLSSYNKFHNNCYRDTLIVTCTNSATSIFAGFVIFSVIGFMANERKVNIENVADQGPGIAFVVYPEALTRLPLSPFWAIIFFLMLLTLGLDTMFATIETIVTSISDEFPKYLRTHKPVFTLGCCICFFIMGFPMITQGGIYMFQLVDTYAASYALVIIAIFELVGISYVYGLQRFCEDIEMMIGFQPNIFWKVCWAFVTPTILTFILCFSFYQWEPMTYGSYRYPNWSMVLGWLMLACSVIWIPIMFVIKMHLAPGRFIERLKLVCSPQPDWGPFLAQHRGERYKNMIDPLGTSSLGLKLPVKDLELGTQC

Cytochrome P450 1A2 = biological target: T3, Cytochrome P450 1A2 (Homo sapiens, UniProt P05177); experiment: Inhibition of CYP1A2 in human liver microsomes using phenacetin as substrate measured after 10 mins in presence of NADPH by LC-MS/MS analysis
T3 sequence (P05177 whole entry): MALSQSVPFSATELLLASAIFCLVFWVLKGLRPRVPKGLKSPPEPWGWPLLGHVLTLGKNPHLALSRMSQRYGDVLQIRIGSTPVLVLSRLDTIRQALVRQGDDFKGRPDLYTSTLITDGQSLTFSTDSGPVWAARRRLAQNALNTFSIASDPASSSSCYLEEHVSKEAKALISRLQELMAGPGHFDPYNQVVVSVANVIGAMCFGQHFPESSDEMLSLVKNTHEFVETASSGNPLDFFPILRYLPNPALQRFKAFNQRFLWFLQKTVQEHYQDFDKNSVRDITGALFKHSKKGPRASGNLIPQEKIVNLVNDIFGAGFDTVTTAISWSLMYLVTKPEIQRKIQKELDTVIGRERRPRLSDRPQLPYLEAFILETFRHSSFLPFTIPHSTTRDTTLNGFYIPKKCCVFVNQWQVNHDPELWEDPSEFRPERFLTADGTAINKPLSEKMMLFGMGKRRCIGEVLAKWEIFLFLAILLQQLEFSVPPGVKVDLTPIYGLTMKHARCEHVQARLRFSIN

Cytochrome P450 2C9 = Cytochrome P450 2C9 (Homo sapiens, UniProt P11712); experiment: Inhibition of CYP2C9 in human liver microsomes using diclofenac as substrate measured after 10 mins in presence of NADPH by LC-MS/MS analysis
Cytochrome P450 2C9, sequence (P11712 whole entry): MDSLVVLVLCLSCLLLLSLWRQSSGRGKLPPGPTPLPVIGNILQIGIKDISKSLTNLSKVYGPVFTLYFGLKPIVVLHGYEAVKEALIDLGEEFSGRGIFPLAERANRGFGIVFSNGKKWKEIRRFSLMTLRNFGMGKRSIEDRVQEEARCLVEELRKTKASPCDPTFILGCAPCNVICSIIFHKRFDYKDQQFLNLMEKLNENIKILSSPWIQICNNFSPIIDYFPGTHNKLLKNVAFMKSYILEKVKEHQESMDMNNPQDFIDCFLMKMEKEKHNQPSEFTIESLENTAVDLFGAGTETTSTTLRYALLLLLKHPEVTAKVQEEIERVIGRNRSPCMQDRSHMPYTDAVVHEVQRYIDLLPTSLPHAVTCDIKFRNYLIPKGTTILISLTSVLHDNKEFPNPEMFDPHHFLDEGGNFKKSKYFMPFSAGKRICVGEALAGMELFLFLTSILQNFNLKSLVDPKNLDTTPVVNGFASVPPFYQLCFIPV

Cytochrome P450 2C19 = Cytochrome P450 2C19 (Homo sapiens, UniProt P33261); experiment: Inhibition of CYP2C19 in human liver microsomes using S-mephenytoin as substrate measured after 10 mins in presence of NADPH by LC-MS/MS analysis
Cytochrome P450 2C19, sequence (P33261 whole entry): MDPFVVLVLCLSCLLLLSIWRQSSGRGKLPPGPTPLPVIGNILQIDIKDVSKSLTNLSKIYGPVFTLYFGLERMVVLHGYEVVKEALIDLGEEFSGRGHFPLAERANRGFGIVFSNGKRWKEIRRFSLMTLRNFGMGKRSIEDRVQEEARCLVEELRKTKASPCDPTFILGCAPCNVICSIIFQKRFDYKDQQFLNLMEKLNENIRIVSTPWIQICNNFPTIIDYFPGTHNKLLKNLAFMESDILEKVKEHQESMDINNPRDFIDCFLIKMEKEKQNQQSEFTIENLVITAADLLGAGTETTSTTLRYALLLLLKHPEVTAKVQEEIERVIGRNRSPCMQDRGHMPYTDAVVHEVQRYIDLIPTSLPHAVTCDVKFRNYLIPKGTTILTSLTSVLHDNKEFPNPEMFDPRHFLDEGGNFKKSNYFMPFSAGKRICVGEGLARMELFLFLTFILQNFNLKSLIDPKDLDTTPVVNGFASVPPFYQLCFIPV

Cytochrome P450 2D6 = Cytochrome P450 2D6 (Homo sapiens, UniProt P10635); experiment: Inhibition of CYP2D6 in human liver microsomes using dextromethorphan as substrate measured after 10 mins in presence of NADPH by LC-MS/MS analysis
Cytochrome P450 2D6, sequence (P10635 whole entry): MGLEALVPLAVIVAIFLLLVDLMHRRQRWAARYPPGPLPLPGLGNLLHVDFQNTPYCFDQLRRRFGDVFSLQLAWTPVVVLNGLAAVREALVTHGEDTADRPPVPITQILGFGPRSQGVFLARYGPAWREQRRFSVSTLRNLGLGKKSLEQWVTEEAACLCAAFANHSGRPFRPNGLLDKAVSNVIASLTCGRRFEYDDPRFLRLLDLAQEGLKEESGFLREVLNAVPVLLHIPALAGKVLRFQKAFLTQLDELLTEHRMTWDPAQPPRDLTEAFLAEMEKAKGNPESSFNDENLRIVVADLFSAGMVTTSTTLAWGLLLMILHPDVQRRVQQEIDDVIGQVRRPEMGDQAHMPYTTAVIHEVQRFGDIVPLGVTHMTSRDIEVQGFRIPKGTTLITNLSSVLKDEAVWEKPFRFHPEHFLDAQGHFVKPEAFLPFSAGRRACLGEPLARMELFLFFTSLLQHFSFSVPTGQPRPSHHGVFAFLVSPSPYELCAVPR

Cytochrome P450 3A4 = Cytochrome P450 3A4 (Homo sapiens, UniProt P08684); experiment: Inhibition of CYP3A4 in human liver microsomes using midazolam as substrate measured after 7 mins in presence of NADPH by LC-MS/MS analysis
Cytochrome P450 3A4, sequence (P08684 whole entry): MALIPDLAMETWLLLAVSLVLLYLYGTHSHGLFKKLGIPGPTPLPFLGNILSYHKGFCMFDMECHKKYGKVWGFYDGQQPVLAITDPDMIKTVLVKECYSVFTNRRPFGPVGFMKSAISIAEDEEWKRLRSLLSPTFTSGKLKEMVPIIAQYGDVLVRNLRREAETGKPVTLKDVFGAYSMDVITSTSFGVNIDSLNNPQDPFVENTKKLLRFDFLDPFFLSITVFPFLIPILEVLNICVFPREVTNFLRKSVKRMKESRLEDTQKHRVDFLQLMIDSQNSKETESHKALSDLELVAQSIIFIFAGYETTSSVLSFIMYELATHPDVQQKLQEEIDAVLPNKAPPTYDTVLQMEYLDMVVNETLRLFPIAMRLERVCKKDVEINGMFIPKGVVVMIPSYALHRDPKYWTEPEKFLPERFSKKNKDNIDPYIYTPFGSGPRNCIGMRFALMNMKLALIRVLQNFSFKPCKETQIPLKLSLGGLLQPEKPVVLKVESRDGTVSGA

[7] = Permeability of the compound at pH 7.4 at 100 uM after 60 mins by PAMPA-BBB assay

| IC50 [1] | microsomal CLint at 1 µM [2] | Papp A→B at 1 h, 5 µM [4] | efflux ratio at 1 h, 5 µM [5] | IC50 [6] | IC50 (Cytochrome P450 1A2) | IC50 (Cytochrome P450 2C9) | IC50 (Cytochrome P450 2C19) | IC50 (Cytochrome P450 2D6) | IC50 (Cytochrome P450 3A4) | Papp at 1 h, 100 µM [7] | Compound | IC50 [3] |
| --- | --- | --- | --- | --- | --- | --- | --- | --- | --- | --- | --- | --- |
| 0.038 µM | 0.3 µL/min/mg | 24.6 ×10⁻⁶ cm/s | 2.4 | > 10 µM | > 10 µM | > 10 µM | > 10 µM | > 10 µM | > 10 µM | 77.9 ×10⁻⁶ cm/s | CS(=O)(=O)c1ccc(OCC2CC2)c(C(=O)N2Cc3cn(-c4ccccc4F)nc3C2)c1 | 9.9 µM |
| 0.078 µM | 13.5 µL/min/mg | 57.4 ×10⁻⁶ cm/s | 1.1 | > 10 µM | > 10 µM | > 10 µM | > 10 µM | > 10 µM | > 10 µM | > 10 ×10⁻⁶ cm/s | C[C@H](Oc1ccc(C#N)cc1C(=O)N1Cc2cn(-c3ccccc3F)nc2C1)C(F)(F)F | > 10 µM |
